Test results as given in paper PMC4306533, “Distinct Features of Cap Binding by eIF4E1b Proteins” (Journal of Molecular Biology, 2015).

Columns and labels:
in vitro translation = system: in vitro translation; set-up: method as in PMID 10387101; settings: Cai et al.; read-out: IC50 (inhibitory potency); cited from earlier work
XeIF4E1bΔN27 = assay: time-synchronized fluorescence titration of cap analogue binding; set-up: species or system Xenopus laevis; settings: for Kas + glycerol XeIF4E1bΔN27: equilibrium association constant
From the text: (§1) The time-synchronized fluorescence titration method, widely used to determine the affinity constants of cap–eIF4E complexes [[20,22–26]], measures the quenching of the intrinsic fluorescence of tryptophan residues due to cap binding (Fig. S2). Knowledge of the equilibrium association constant Kas enables the calculation of the free-energy changes involved in the interaction between eIF4E and ligand, according to the standard equation ΔG° = − RTlnKas.
(§2) For human eIF4E1a and eIF4E1b and also for Xenopus eIF4E1a and its mutated forms, measurements were carried out using 0.1 μM protein in 50 mM Hepes/KOH (pH 7.2), 134.5 mM KCl, 0.5 mM EDTA and 1 mM DTT. For Xenopus eIF4E1b(ΔN27), the concentration was 0.2 μM and glycerol was added to the buffer to 10% (v/v) final concentration. […] Fluorescence of measured samples was excited at 280 nm (2.5 nm bandwidth) and detected at 337 nm or 330 nm (4 nm bandwidth), thus reducing the signal originated from the free cap analogues. Measurements were carried out on a LS-55 spectrofluorometer (Perkin Elmer Co.) using freshly prepared proteins, and the fluorescence intensities were corrected for sample dilution and the inner filter effect.
(§3) Equilibrium association constants (Kas) were determined by fitting the theoretical dependence of fluorescence intensity on the total concentration of the cap analogue to the experimental data points, according to the equation described previously (see Ref. [22] and Fig. S2c).
(§4) The final Kas was calculated as a weighted average of 2–6 independent titrations with the weights taken as the reciprocal of the numerical standard deviation squared. Numerical, nonlinear least-squares regression analysis was performed using Origin 6.0 (Microcal Software Inc.). Obtained association constants were used to determine the Gibbs free energy according to the standard equation ΔG° = − RTlnKas.

X4E1a1 (E101S) = biological target: T1, X4E1a1 (E101S) (Xenopus laevis, UniProt P48597, E101S); assay: fluorescence titration, XeIF4E1a mutant; type: binding; settings: mutant (E101S) of XeIF4E1a
T1 construct: made in house; host or cells: E. coli Rosetta2(DE3)
T1 sequence (P48597 whole entry E101S): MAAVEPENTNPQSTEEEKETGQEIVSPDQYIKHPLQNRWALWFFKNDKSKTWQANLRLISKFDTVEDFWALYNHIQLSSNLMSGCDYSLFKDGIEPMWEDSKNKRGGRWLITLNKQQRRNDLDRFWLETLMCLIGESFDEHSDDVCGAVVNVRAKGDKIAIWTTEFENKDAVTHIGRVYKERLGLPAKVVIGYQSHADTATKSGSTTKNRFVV
From the text: (§5) We tested the effect on cap-binding activity of these positions in the fluorescence assay with six mutated recombinant versions of Xenopus eIF4E1a (Fig. S4). The amino acids were introduced in XeIF4E1a sequentially in the order: E101S/K102R/S195A/M82S/T206L/T207S (numbering of the XeIF4E1a sequence is shifted backward by 4 amino acids relative to XeIF4E1b). […] The biggest contribution to the weaker cap binding of XeIF4E1a, in each case about 20%, resulted from changing Glu101 to Ser and Thr206 to Leu coupled with Thr207 to Ser, with the remaining mutations having only minor effects. […] Glu101 is a solvent-accessible amino acid and is proximal to Trp98 in the S3-S4 loop. […] Attenuation of the cap-binding affinity of XeIF4E1a resulting from mutating Thr206 and Thr207 is consistent with our results mentioned above showing significant influence of C-terminal loop residues on binding phosphate and the second nucleotide.
(§6) For human eIF4E1a and eIF4E1b and also for Xenopus eIF4E1a and its mutated forms, measurements were carried out using 0.1 μM protein in 50 mM Hepes/KOH (pH 7.2), 134.5 mM KCl, 0.5 mM EDTA and 1 mM DTT. For Xenopus eIF4E1b(ΔN27), the concentration was 0.2 μM and glycerol was added to the buffer to 10% (v/v) final concentration. […] The gradually increasing concentration of cap analogue quenches protein fluorescence without shifting the spectrum maximum, while at high concentrations, the fluorescence signal of free cap analogue dominates over the fluorescence from other solution components including free eIF4E and eIF4E in complex with cap (Fig. S2a). Fluorescence of measured samples was excited at 280 nm (2.5 nm bandwidth) and detected at 337 nm or 330 nm (4 nm bandwidth), thus reducing the signal originated from the free cap analogues. Measurements were carried out on a LS-55 spectrofluorometer (Perkin Elmer Co.) using freshly prepared proteins, and the fluorescence intensities were corrected for sample dilution and the inner filter effect.
(§7) Equilibrium association constants (Kas) were determined by fitting the theoretical dependence of fluorescence intensity on the total concentration of the cap analogue to the experimental data points, according to the equation described previously (see Ref. [22] and Fig. S2c). […] Along with Kas and the concentration of the active protein [P0^act], other parameters such as fL and ∆f = fPact − fPL are also gained from the fit, where fL represents the fluorescence efficiency of free cap analogue and ∆f represents the difference between the fluorescence efficiencies of the apo-protein and the complex (Fig. S2c).
as §4

X4E1a1’ (K102R) = biological target: T2, X4E1a1’ (K102R) (Xenopus laevis, UniProt P48597, K102R); assay: fluorescence titration, XeIF4E1a mutant; type: binding; settings: mutant (K102R) of XeIF4E1a
T2 construct: made in house; host or cells: E. coli Rosetta2(DE3)
T2 sequence (P48597 whole entry K102R): as the sequence (P48597 whole entry E101S) above, with S101E, K102R counted along it
From the text: as §5, §6, §7, §4

[1] = biological target: T3, X4E1a3 (E101S/K102R/S195A) (Xenopus laevis, UniProt P48597, E101S/K102R/S195A); assay: fluorescence titration, XeIF4E1a mutant; type: binding; settings: mutant (E101S/K102R/S195A) of XeIF4E1a
T3 construct: made in house; host or cells: E. coli Rosetta2(DE3)
T3 sequence (P48597 whole entry E101S/K102R/S195A): as the sequence (P48597 whole entry E101S) above, with K102R, S195A counted along it
From the text: as §5, §6, §7, §4

[2] = biological target: T4, X4E1a4 (E101S/K102R/S195A/M82S) (Xenopus laevis, UniProt P48597, E101S/K102R/M82S/S195A); assay: fluorescence titration, XeIF4E1a mutant; type: binding; settings: mutant (E101S/K102R/S195A/M82S) of XeIF4E1a
T4 construct: made in house; host or cells: E. coli Rosetta2(DE3)
T4 sequence (P48597 whole entry M82S/E101S/K102R/S195A): as the sequence (P48597 whole entry E101S) above, with M82S, K102R, S195A counted along it
From the text: as §5, §6, §7, §4

[3] = biological target: T5, X4E1a6 (E101S/K102R/S195A/M82S/T206L/T207S) (Xenopus laevis, UniProt P48597, E101S/K102R/M82S/S195A/T206L/T207S); assay: fluorescence titration, XeIF4E1a mutant; type: binding; settings: mutant (E101S/K102R/S195A/M82S/T206L/T207S) of XeIF4E1a
T5 construct: made in house; host or cells: E. coli Rosetta2(DE3)
T5 sequence (P48597 whole entry M82S/E101S/K102R/S195A/T206L/T207S): as the sequence (P48597 whole entry E101S) above, with M82S, K102R, S195A, T206L, T207S counted along it
From the text: as §5, §6, §7, §4

X4E1a2 (E101S/K102R) = biological target: T6, X4E1a2 (E101S/K102R) (Xenopus laevis, UniProt P48597, E101S/K102R); assay: fluorescence titration, XeIF4E1a mutant; type: binding; settings: mutant (E101S/K102R) of XeIF4E1a
T6 construct: made in house; host or cells: E. coli Rosetta2(DE3)
T6 sequence (P48597 whole entry E101S/K102R): as the sequence (P48597 whole entry E101S) above, with K102R counted along it
From the text: as §5, §6, §7, §4

heIF4E1b [4] = assay: time-synchronized fluorescence titration of cap analogue binding; set-up: species or system human; settings: without glycerol
From the text: as §1, §2, §3, §4

heIF4E1a = biological target: T7, heIF4E1a (Homo sapiens, UniProt P06730); assay: as above; settings: for Kas − glycerol heIF4E1a: equilibrium association constant, buffer without glycerol
T7 construct: made in house; host or cells: E. coli Rosetta2(DE3)
T7 sequence (P06730 whole entry): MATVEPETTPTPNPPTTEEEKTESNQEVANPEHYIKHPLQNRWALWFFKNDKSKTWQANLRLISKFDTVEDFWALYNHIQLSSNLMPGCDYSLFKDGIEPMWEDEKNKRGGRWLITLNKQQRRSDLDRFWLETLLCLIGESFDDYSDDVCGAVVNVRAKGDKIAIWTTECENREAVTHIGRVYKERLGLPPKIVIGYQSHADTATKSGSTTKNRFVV
From the text: as §1, §2, §3, §4

XeIF4E1a [5] = biological target: T8, XeIF4E1a (Xenopus laevis, UniProt P48597); assay: as above; settings: for Kas + glycerol XeIF4E1a / Kas − glycerol XeIF4E1a: equilibrium association constant; for Kas − glycerol XeIF4E1a: buffer without glycerol
T8 construct: made in house; host or cells: E. coli Rosetta2(DE3)
T8 sequence (P48597 whole entry): as the sequence (P48597 whole entry E101S) above, with S101E counted along it
From the text: as §1, §2, §3, §4

XeIF4E1a [6] = assay: as above; set-up: species or system Xenopus laevis; settings: without glycerol
From the text: as §1, §2, §3, §4

heIF4E1b [7] = biological target: T9, heIF4E1b (Homo sapiens, UniProt A6NMX2); assay: as above; settings: for Kas − glycerol heIF4E1b: equilibrium association constant, buffer without glycerol
T9 construct: made in house; host or cells: E. coli Rosetta2(DE3)
T9 sequence (A6NMX2 1-242): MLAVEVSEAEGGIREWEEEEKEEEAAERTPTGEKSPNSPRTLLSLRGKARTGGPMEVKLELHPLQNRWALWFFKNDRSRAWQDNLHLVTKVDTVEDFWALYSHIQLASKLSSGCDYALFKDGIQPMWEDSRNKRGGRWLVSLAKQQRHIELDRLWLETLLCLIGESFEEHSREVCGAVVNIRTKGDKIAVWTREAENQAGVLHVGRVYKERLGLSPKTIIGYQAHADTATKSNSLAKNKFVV
From the text: as §1, §2, §3, §4

[8] = change relative to m^7GTP, 10% glycerol
[9] = change relative to m^7GTP, without glycerol

| Ratio Kas (X4E1a) to Kas (X4E1bΔN27) (XeIF4E1bΔN27; 10% glycerol) | Kas + glycerol XeIF4E1bΔN27 (XeIF4E1bΔN27; 10% glycerol) [μM^− 1] | Kas X4E1a1 (X4E1a1 (E101S)) [µM⁻¹] | Kas X4E1a1’ (X4E1a1’ (K102R)) [µM⁻¹] | Kas X4E1a3 [1] [µM⁻¹] | Kas X4E1a4 [2] [µM⁻¹] | Kas X4E1a6 [3] [µM⁻¹] | Kas X4E1a2 (X4E1a2 (E101S/K102R)) [µM⁻¹] | Ratio Kas (h4E1a) to Kas (h4E1b) (heIF4E1b [4]) | Kas − glycerol heIF4E1a (heIF4E1a) [μM^− 1] | Kas + glycerol XeIF4E1a (XeIF4E1a [5]; 10% glycerol) [μM^− 1] | Kas − glycerol XeIF4E1a (XeIF4E1a [5]) [μM^− 1] | Ratio Kas (h4E1a) to Kas (X4E1a) (XeIF4E1a [6]) | Kas − glycerol heIF4E1b (heIF4E1b [7]) [μM^− 1] | Structure (SMILES) | IC50 (in vitro translation) [µM] | also measured |
| --- | --- | --- | --- | --- | --- | --- | --- | --- | --- | --- | --- | --- | --- | --- | --- | --- |
| – | – | – | – | – | – | – | – | – | – | – | – | – | – | Nc1nc2c(c(=O)[nH]1)[n+](Cc1ccc(Cl)cc1)cn2[C@@H]1O[C@H](COP(=O)([O-])O)[C@@H](O)[C@H]1O [p-Cl-bn^7GMP] | 51 | – |
| 2.20 | 2.26 ± 0.20 | 7.14 ± 0.63 | 7.38 ± 0.18 | 6.23 ± 0.17 | 8.21 ± 0.51 | 4.41 ± 0.16 | 7.132 ± 0.088 | 1.78 | 13.04 ± 0.31 | 4.97 ± 0.22 | 7.89 ± 0.57 | 1.65 | 7.34 ± 0.34 | CCn1c[n+]([C@@H]2O[C@H](COP(=O)(O)OP(=O)(O)OP(=O)(O)O)[C@@H](O)[C@H]2O)c2nc(N)[nH]c(=O)c21 [et^7GTP] | – | fold decrease of association constant relative to m^7GTP (XeIF4E1bΔN27; N^7-methyl replaced by ethyl): 3 fold; ΔΔG^o + glycerol XeIF4E1bΔN27 (XeIF4E1bΔN27; [8]): 0.722 ± 0.059 kcal/mol; fold decrease of association constant relative to m^7GTP (heIF4E1a; N^7-methyl replaced by ethyl): approximately 5 fold; ΔΔG^o − glycerol heIF4E1a (heIF4E1a; [9]): 0.965 ± 0.045 kcal/mol; fold decrease of association constant relative to m^7GTP (XeIF4E1a [5]; N^7-methyl replaced by ethyl): approximately 5 fold; ΔΔG^o + glycerol XeIF4E1a (XeIF4E1a [5]; [8]): 0.900 ± 0.035 kcal/mol; ΔΔG^o − glycerol XeIF4E1a (XeIF4E1a [5]; [9]): 0.984 ± 0.050 kcal/mol; fold decrease of association constant relative to m^7GTP (heIF4E1b [7]; N^7-methyl replaced by ethyl): 3 fold; ΔΔG^o − glycerol heIF4E1b (heIF4E1b [7]; [9]): 0.639 ± 0.045 kcal/mol |
| – | – | – | – | – | – | – | – | – | – | – | – | – | – | Nc1nc2c(c(=O)[nH]1)n(Cc1ccc(Cl)cc1)c[n+]2[C@@H]1O[C@H](COP(=O)([O-])OP(=O)(O)O)[C@@H](O)[C@H]1O [p-Cl-bn^7GDP] | 6.76 | – |
| 3.51 | 43.0 ± 2.0 | 218 ± 39 | 232.5 ± 8.3 | 170 ± 24 | 206 ± 12 | 143 ± 8 | 202.5 ± 6.7 | 4.68 | 419 ± 23 | 151.1 ± 8.6 | 268 ± 10 | 1.57 | 89.6 ± 4.0 | Cn1c[n+]([C@@H]2O[C@H](COP(=O)(O)OP(=O)(O)OP(=O)(O)OP(=O)(O)O)[C@@H](O)[C@H]2O)c2nc(N)[nH]c(=O)c21 [m^7Gp4] | – | – |
